Measured values: article PMC11676982, “Heterotropic Activation of Cytochrome P450 3A4 by Perillyl Alcohol” (Pharmaceutics, 2024)
pIC50: −log10 of the molar value.

How the values were obtained:
[1] = molecular target: T1, CYP2A6 (Homo sapiens, UniProt P11509); assay: Direct CYP inhibition assay in pooled HLMs, CYP2A6 (coumarin); assay type: in vitro ADME; conditions: pooled HLMs 0.2 mg/mL; substrate coumarin 5 μM; 10 min; 95% CI in parentheses; read-out: IC50 against CYP2A6
T1 sequence (P11509 1-494): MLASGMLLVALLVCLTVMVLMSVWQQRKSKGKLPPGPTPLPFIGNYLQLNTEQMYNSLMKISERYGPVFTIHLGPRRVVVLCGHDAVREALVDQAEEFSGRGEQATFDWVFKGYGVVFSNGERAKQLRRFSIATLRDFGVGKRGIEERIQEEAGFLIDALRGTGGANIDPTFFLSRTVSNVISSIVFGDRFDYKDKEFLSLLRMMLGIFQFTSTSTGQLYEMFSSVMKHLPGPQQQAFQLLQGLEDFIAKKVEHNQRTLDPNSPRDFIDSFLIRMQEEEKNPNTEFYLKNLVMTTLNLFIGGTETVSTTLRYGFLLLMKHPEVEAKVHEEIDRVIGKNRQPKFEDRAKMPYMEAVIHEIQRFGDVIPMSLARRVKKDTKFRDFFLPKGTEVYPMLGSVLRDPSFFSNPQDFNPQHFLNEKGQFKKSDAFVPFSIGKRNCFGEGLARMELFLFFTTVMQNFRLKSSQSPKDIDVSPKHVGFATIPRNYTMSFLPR

[2] = molecular target: CYP2E1 (Homo sapiens, UniProt P05181); assay: Direct CYP inhibition assay in pooled HLMs, CYP2E1 (chlorzoxazone); assay type: in vitro ADME; conditions: pooled HLMs 0.2 mg/mL; substrate chlorzoxazone 50 μM; 10 min; read-out: IC50 against CYP2E1
Chain of CYP2E1 (P05181 whole entry): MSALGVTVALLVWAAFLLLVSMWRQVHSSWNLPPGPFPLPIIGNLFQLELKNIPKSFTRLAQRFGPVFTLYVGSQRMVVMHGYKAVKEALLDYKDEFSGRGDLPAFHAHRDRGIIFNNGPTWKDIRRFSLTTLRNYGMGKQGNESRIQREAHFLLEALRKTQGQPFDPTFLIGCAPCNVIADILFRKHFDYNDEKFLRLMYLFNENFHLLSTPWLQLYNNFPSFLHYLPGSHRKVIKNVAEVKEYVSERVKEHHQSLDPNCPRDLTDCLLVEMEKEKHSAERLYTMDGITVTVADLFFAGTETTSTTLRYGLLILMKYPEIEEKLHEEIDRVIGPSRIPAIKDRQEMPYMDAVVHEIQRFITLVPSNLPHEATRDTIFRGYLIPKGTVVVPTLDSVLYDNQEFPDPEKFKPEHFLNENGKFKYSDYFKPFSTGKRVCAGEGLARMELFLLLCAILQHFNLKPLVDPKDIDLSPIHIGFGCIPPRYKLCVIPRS

[3] = molecular target: T1, CYP2A6; assay: Metabolism-dependent inhibition assay (IC50 shift) in pooled HLMs, CYP2A6; conditions: substrate coumarin; for pIC50: CYP2A6, pooled HLMs, 95% CI in parentheses
Experimental: The experiments for determining metabolism-dependent inhibition were conducted utilizing a non-dilution method. […] The pre-incubation was initiated by the addition of 1 mM NADPH and incubation for 30 min. Subsequently, final incubation was performed with the addition of a substrate (5 μM coumarin or 50 μM bupropion) in the presence of NADPH for 10 min; the total volume of the mixture was 200 μL. […] Mixtures were subjected to centrifugation at 3000× g for 20 min at 4 °C, and the supernatants were analyzed using LC-MS/MS. The experiment was performed using three separate samples.
The CYP-mediated activities in the presence of test substances were expressed as percentages of the corresponding control values.

[4] = molecular target: T2, CYP3A4 (Homo sapiens, UniProt P08684); assay: Kinetic parameters of MDZ hydroxylation in pooled HLMs in the presence of (−)-POH; assay type: in vitro ADME; conditions: 100 μM (−)-POH
T2 sequence (P08684 whole entry): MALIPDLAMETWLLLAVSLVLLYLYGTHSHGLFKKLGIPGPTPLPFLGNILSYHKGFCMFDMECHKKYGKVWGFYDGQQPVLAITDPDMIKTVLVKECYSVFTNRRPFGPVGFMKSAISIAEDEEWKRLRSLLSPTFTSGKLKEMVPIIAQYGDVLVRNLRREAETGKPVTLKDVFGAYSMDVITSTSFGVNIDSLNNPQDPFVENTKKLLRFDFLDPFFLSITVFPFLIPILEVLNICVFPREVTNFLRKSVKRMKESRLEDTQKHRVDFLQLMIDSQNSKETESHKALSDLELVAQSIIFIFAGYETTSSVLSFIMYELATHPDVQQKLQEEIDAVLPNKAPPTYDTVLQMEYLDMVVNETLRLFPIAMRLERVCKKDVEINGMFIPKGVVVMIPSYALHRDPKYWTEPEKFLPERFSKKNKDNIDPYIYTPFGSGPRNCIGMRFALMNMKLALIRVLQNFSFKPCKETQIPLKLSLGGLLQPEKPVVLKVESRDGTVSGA
Experimental: The supernatants obtained after centrifuging at 3000× g for 20 min at 4 °C were injected into LC-MS/MS for analysis. The experiment was performed using four separate samples.
Kinetic parameters were estimated using GraphPad Prism to plot activities against the log of MDZ concentration in the presence of (–)-POH.

[5] = molecular target: T3, rCYP3A4 (Homo sapiens, UniProt P08684); assay: Enzyme activity assay using rCYP3A4 with or without cytochrome b5 (MDZ 1′-hydroxylation); assay type: biochemical
T3 construct: host or cells: baculovirus-transfected insect cells
T3 sequence (P08684 whole entry): as above
Experimental: Incubation mixtures (final volume, 200 μL) contained 0.1 M PPB (pH 7.4), 50 pmol/mL rCYP3A4 with or without cytochrome b5, 1 mM NADPH, 5 μM MDZ, and POH (0–100 μM). After preincubating for 5 min, the reactions were initiated by adding 1 mM NADPH and incubated for 10 min. […] The experiment was performed using three separate samples.

[6] = molecular target: CYP2C9 (Homo sapiens, UniProt P11712); assay: Effect of POH on fimasartan (FMS) metabolism in pooled HLMs: CYP2C9-mediated hydroxy butyl FMS formation; assay type: in vitro ADME; conditions: FMS 30 μM, 95% CI in parentheses; for pIC50: pooled HLMs, 10 min
Chain of CYP2C9 (P11712 whole entry): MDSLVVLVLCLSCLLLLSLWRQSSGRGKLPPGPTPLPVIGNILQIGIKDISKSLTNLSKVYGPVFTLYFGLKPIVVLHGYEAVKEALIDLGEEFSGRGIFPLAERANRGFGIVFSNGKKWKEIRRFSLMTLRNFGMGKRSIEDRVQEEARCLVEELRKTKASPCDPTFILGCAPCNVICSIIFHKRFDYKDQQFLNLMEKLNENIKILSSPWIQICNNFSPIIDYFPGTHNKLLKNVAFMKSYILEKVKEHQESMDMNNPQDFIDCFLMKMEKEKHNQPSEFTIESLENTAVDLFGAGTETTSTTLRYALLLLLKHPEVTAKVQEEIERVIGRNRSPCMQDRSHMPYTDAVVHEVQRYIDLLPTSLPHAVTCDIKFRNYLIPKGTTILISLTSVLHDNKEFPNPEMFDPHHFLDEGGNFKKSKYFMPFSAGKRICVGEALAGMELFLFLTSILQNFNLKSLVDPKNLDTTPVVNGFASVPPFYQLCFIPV
Experimental: (§1) The substrates were applied at a concentration that approximated their Km values. The reactions were preincubated for 5 min before being initiated with the addition of 1 mM NADPH. After 10 min incubation, reactions containing atorvastatin, buspirone, FMS, or nifedipine were terminated by the addition of 200 μL of ice-cold acetonitrile with 100 nM carbamazepine as an internal standard. For terminating reactions with donepezil or tadalafil, 200 μL of ice-cold methanol containing 0.5% (v/v) formic acid and 1 μM carbamazepine as internal standard was added to samples. […] The experiment was performed using three separate samples.

[7] = molecular target: T2, CYP3A4; assay: Effect of POH on fimasartan (FMS) metabolism in pooled HLMs: CYP3A4-mediated BR-A-557 formation; assay type: in vitro ADME; conditions: FMS 30 μM, 100 μM (−)-POH
Experimental: as §1

[8] = system: CYP3A4 and CYP2C9; assay: Effect of POH on fimasartan (FMS) metabolism in pooled HLMs: FMS S-oxide formation; assay type: in vitro ADME, human; conditions: FMS 30 μM, (−)-POH 3.2–100 μM
Experimental: as §1

[9] = molecular target: T2, CYP3A4; assay: Effect of POH on the metabolism of other CYP3A4 substrates in pooled HLMs; assay type: in vitro ADME; conditions: (−)-POH 3.2–100 μM, substrates near Km
Experimental: as §1

[10] = molecular target: T4, CYP2B6 (Homo sapiens, UniProt P20813); assay: Direct CYP inhibition assay in pooled HLMs, CYP2B6 (bupropion)
T4 sequence (P20813 1-491): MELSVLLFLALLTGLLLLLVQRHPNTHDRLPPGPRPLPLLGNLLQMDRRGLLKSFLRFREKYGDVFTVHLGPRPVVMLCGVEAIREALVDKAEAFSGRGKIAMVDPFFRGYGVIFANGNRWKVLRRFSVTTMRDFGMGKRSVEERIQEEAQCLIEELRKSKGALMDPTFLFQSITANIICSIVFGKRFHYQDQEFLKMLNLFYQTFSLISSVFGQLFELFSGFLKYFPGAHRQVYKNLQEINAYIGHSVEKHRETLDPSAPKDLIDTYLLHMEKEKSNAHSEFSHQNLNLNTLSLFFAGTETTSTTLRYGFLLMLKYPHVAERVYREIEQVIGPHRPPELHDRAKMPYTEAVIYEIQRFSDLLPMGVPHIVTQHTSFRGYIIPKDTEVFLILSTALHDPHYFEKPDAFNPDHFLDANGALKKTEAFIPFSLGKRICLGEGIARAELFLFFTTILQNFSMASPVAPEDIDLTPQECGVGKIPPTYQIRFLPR

[11] = molecular target: T1, CYP2A6; assay: Determination of CYP inhibition mode and Ki in pooled HLMs, CYP2A6-mediated coumarin 7-hydroxylation
Experimental: A 5 min pre-incubation was performed prior to initiating reactions with the addition of 1 mM NADPH. After incubation at 37 °C for 10 min, 200 μL of ice-cold acetonitrile containing 100 nM carbamazepine as an internal standard was added to terminate the reaction. The samples were agitated and centrifuged at 4 °C for 20 min at 3000× g. The supernatants were transferred to a 96-well plate for LC-MS/MS analysis. The experiment was performed using three separate samples.
Data acquired from the evaluation of enzyme inhibition using various concentrations of substrates and test compounds were fit to different models (competitive, noncompetitive, uncompetitive, or mixed), and inhibition constant (Ki) and goodness of fit values were obtained using GraphPad Prism. The appropriate type of inhibition was selected based on statistical goodness of fit tests including Akaike’s information criterion (AICc) with correction for small sample size and the standard deviation of the residuals (Sy.x).

C=C(C)[C@@H]1CC=C(CO)CC1 [(−)-POH, (−)-perillyl alcohol] showed a pIC50 [1] of 4.80, a pIC50 [2] of under 4.30 and a pIC50 ([3]; IC50, pre-incubation with NADPH, 30 min pre-incubation with NADPH) of 4.63. The pIC50 ([3]; IC50, pre-incubation without NADPH, 30 min pre-incubation without NADPH) was 4.61, the “IC50 fold-shift, CYP2A6” value ([3]; IC50 without NADPH/IC50 with NADPH) was 1.04 and the “Increase of Vmax/Km value of MDZ 1′-hydroxylation compared with absence of (−)-POH” value [4] was 2.67 fold. The “Increase of Vmax/Km value of MDZ 1′-hydroxylation compared with absence of (−)-POH” value ([4]; listed as POH) was 2.7 fold, the “Enhancement of MDZ 1′-hydroxylation” value ([5]; rCYP3A4 in the absence of cytochrome b5, POH 0–100 μM) was “No significant enhancement” and the “CYP3A4 activity for 1′-OH-MDZ formation compared with control without (−)-POH” value ([5]; rCYP3A4 in the presence of cytochrome b5, 100 μM (−)-POH, 5 μM MDZ) was 1.57 fold. It also gave a pIC50 ([6]; IC50 against formation of 1-hydroxy butyl FMS) of 3.91, a pIC50 ([6]; IC50 against formation of 4-hydroxy butyl FMS) of 4.20 and an IC50 at 10 min ([6]; human, pooled human liver microsomes, pH 7.4, pooled HLMs, read-out: IC50 against formation of 2- or 3-hydroxy butyl FMS) of 62 µM. The “BR-A-557 formation from FMS relative to the control” value [7] was 1.29 fold, the “Formation of FMS S-oxide” value [8] was “reduced” and the “Effect on CYP3A4-mediated metabolism of atorvastatin, buspirone, donepezil, nifedipine, and tadalafil” value [9] was “did not significantly affect”. For the same molecule, the pIC50 [10] was 5.16, the “Type of inhibition, CYP2A6” value ([11]; best fit by AICc and Sy.x, Dixon plots) was “mixed inhibition model” and the “Ki, CYP2A6, uncompetitive model (not selected)” value ([11]; pooled HLMs, coumarin, 95% CI in parentheses) was 10.9 (9.16–12.9) μM.
